In patent US20050244502A1, “Composition for enhancing absorption of a drug and method” (priority 2004, published 2005):

How the values were obtained:
Calu-3 cells [1] = assay: TEER measurement (cell integrity and reversibility) in Calu-3 cells; assay type: cell-based, human
Description: The asterisk (delete scatters with) (*) represent (delete marker present) those samples where TEER recovered to the original level within 12 hrs after washout of the treatment.
Transepithelial electrical resistance (TEER) measures the integrity of the epithelial barrier. […] Return of the TEER values to initial levels indicates recovery to baseline barrier properties. TEER measurements were done in confluent highly resistant Calu-3 cells cultured in Transwell filters with handheld STX-2 electrodes connected to EVOM Voltohmmeter. […] After the removal of apical treatment, TEER recovered to the original values.

Calu-3 cells [2] = assay: Permeability (Papp) of DDAVP across Calu-3 cell monolayers on Transwell filters; conditions: for additive permeability enhancement or change in epithelial resistance in the presence of Carbopol polymers (in words): enhancer with Carbopol polymers (Example 11)
in vivo = conditions: rat, 1 mg/kg
Description: A dosing solution of DDAVP in water, C971P, LPC or C971P/LPC was directly injected into a 10-cm segment of rat colon. Blood was collected over a 2 hr period to assess the extent of systemic absorption from the various formulations.

in vitro = conditions: human
Calu-3 cells [3] = assay: Acute cytotoxicity assay (Alamar Blue) in Calu-3 cells; assay type: cell-based, human
Description: FIG. 2 depicts an Alamar Blue Assay—Black bar indicates the % of the cell survival after 2 hrs treatment of LPC at 0-0.25%; gray bar indicates the combination of LPC with 0.5% of C971P.
This assay is based on the ability of live cells to enzymatically reduce Alamar blue dye which indicates the relative percentage of cells that survive the exposure to the various treatments. Calu-3 cells exposed to buffer for 2 hr were used as the positive control with 100% cell survival.

[4] = Intra-nasal DADLE absorption in rabbits; assay type: in vivo; conditions: DADLE 1 mg/kg via syringe microsprayer in rabbit nostril
Description: Intra-nasal delivery of the model pentapepdide DADLE in water, C971P, LPC or C971P/LPC formulation was studied in rabbits. […] The C971P/LPC formulation enhanced DADLE absorption by >50% compared to LPC alone.

Molecule: Phosphatidylcholine [Lecithin]
- TEER after 2 hr (% initial) (Calu-3 cells [1]; Lecithin 1 mM): No change
- TEER after 2 hr (% initial) (Calu-3 cells [1]; Lecithin 2 mM): No change
- TEER after 2 hr (% initial) (Calu-3 cells [1]; Lecithin 5 mM): No change
- DDAVP permeability enhancement or TEER drop (in words) (Calu-3 cells [2]; Carbopol added along with phosphatidylcholine): no significant enhancement in permeability or drop in TEER
- DDAVP Permeability (Calu-3 cells [2]; Lecithin 1 mM): 0.045 ± 0.003 ×10⁻⁶ cm/s
- DDAVP Permeability (Calu-3 cells [2]; Lecithin 2 mM): 0.044 ± 0.003 ×10⁻⁶ cm/s
- DDAVP Permeability (Calu-3 cells [2]; Lecithin 5 mM): 0.044 ± 0.004 ×10⁻⁶ cm/s
- additive permeability enhancement or change in epithelial resistance in the presence of Carbopol polymers (in words) (Calu-3 cells [2]): do not show additive permeability enhancement advantage or change in epithelial resistance
- DDAVP permeability enhancement or TEER drop (in words) (Calu-3 cells [2]; phosphatidylcholine alone, Calu-3 cells): failed to show any measurable enhancement or TEER drop

Molecule: NC(=O)CC[C@@H]1NC(=O)[C@H](Cc2ccccc2)NC(=O)[C@H](Cc2ccc(O)cc2)NC(=O)CCSSC[C@@H](C(=O)N2CCC[C@H]2C(=O)N[C@H](CCCN=C(N)N)C(=O)NCC(N)=O)NC(=O)[C@H](CC(N)=O)NC1=O [DDAVP, 1 deamino-8-D-arginin-vasopressin]
- bioavailability (in vivo): 0.1 ± 0.1%
- Papp (in vitro): 0.04 ± 0.003 ×10⁻⁶ cm/s

Molecule: CCCCCCCCCC(=O)[O-].[Na+] [sodium caprate]
- effect of Carbopol 971P on acute cytotoxicity of the enhancer (in words) (Calu-3 cells [3]; enhancer combined with Carbopol 971P, Alamar Blue, Calu-3 cells): failed to reduce the acute cytotoxicity
- additive permeability enhancement or change in epithelial resistance in the presence of Carbopol polymers (in words) (Calu-3 cells [2]): do not show additive permeability enhancement advantage or change in epithelial resistance

Molecule: L-α-lysophosphatidylcholine [LPC]
- cell survival (Calu-3 cells [3]; 0.05% LPC alone, 2 hr, buffer control = 100%): About 82%
- cell survival (Calu-3 cells [3]; 0.05% LPC with C971P (0.5%) in the formulation, 2 hr): 95%
- cell survival (Calu-3 cells [3]; 0.1% LPC alone, 2 hr): 41%
- cell survival (Calu-3 cells [3]; 0.1% LPC in the presence of C971P (0.5%), 2 hr): > 90%
- cell survival (in words) (Calu-3 cells [3]; LPC alone 0-0.25%, 2 hr): dose-dependent reduction in survival
- TEER recovery after removal of treatment (in words) (Calu-3 cells [1]; 0.05% LPC with C971P also present): recovered
- TEER change (in words) (Calu-3 cells [1]; LPC alone, 2 hr treatment): dramatic drop in TEER
- extent of TEER drop (in words) (Calu-3 cells [1]; LPC with C971P present in the formulation, 2 hr treatment): significantly reduced
- DADLE exposure, times higher than water control [4]: 2.4 times
- DDAVP Papp increase compared with 0.5% C971P alone (Calu-3 cells [2]; LPC 0.01-0.25% combined with 0.5% C971P, dose-dependent, Calu-3 cells): up to 32 fold
